ChEMBL document CHEMBL1201862, “PubChem BioAssay data set” (2004)
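A five-concentration, 48-hour dose response in 96-well plates underlies each endpoint, interpolated linearly between surrounding concentrations. Abbreviation: GI50, concentration required for 50% inhibition of growth.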 Active and inactive are the calls of the source. No stated cut-off is given here; in the data, active = GI50 up to about 1.1 µM and inactive = higher.

Key:
Assay in all cases: growth of human tumour cells (NCI), 48 h
SK-MEL-5 = tested on: SK-MEL-5
M14 = tested on: M14
HL-60 = tested on: HL-60
SK-MEL-28 = tested on: SK-MEL-28
Malme-3M = tested on: Malme-3M
LOX IMVI = tested on: LOX IMVI
HCT-15 = tested on: HCT-15
SNB-78 = tested on: SNB-78
KM-20L2 = tested on: KM-20L2
A549 = tested on: A549
EKVX = tested on: EKVX
OVCAR-8 = tested on: OVCAR-8
HOP-18 = tested on: HOP-18
HT-29 = tested on: HT-29
XF498 = tested on: XF498
786-0 = tested on: 786-0
HCT-116 = tested on: HCT-116
M19-MEL = tested on: M19-MEL
RPMI-8226 = tested on: RPMI-8226
NCI-H522 = tested on: NCI-H522
DLD-1 = tested on: DLD-1
CCRF-CEM = tested on: CCRF-CEM
OVCAR-5 = tested on: OVCAR-5
RXF 393 = tested on: RXF 393
SR = tested on: SR
NCI-H226 = tested on: NCI-H226
NCI-H460 = tested on: NCI-H460
RXF 631 = tested on: RXF 631
HCC 2998 = tested on: HCC 2998
SNB-19 = tested on: SNB-19
OVCAR-4 = tested on: OVCAR-4
SK-MEL-2 = tested on: SK-MEL-2
UO-31 = tested on: UO-31
SK-OV-3 = tested on: SK-OV-3
IGROV-1 = tested on: IGROV-1
LXFL 529 = tested on: LXFL 529
ACHN = tested on: ACHN
SN12C = tested on: SN12C
MOLT-4 = tested on: MOLT-4
SW-620 = tested on: SW-620
UACC-62 = tested on: UACC-62
CAKI-1 = tested on: CAKI-1
SF-268 = tested on: SF-268
SF-539 = tested on: SF-539
U-251 = tested on: U-251
OVCAR-3 = tested on: OVCAR-3
COLO 205 = tested on: COLO 205
NCI-H23 = tested on: NCI-H23
HOP-62 = tested on: HOP-62
KM12 = tested on: KM12
K562 = tested on: K562
SF-295 = tested on: SF-295
UACC-257 = tested on: UACC-257

Structure (SMILES): Cc1cc(C)c(-c2noc(-c3ccc(Cl)cc3)c2C2=NCCCN2)c(C)c1
- GI50 (SK-MEL-5): 10.4 µM (inactive)
- GI50 (M14): 2.47 µM (inactive)
- GI50 (HL-60): 13.2 µM (inactive)
- GI50 (SK-MEL-28): 14.8 µM (inactive)
- GI50 (Malme-3M): 19.4 µM (inactive)
- GI50 (LOX IMVI): 16.2 µM (inactive)
- GI50 (HCT-15): 18.5 µM
- GI50 (SNB-78): 14.8 µM (inactive)
- GI50 (KM-20L2): 21.9 µM (inactive)
- GI50 (A549): 24 µM (inactive)
- GI50 (EKVX): 18 µM (inactive)
- GI50 (OVCAR-8): 26.7 µM (inactive)
- GI50 (HOP-18): 27.9 µM (inactive)
- GI50 (HT-29): 13.5 µM (inactive)
- GI50 (XF498): 12.2 µM (inactive)
- GI50 (786-0): 7.45 µM (inactive)
- GI50 (HCT-116): 4.57 µM (inactive)
- GI50 (M19-MEL): 36.1 µM (inactive)
- GI50 (RPMI-8226): 16.2 µM (inactive)
- GI50 (NCI-H522): 20 µM (inactive)
- GI50 (DLD-1): 35.8 µM (inactive)
- GI50 (CCRF-CEM): 20.6 µM (inactive)
- GI50 (OVCAR-5): 31.6 µM (inactive)
- GI50 (RXF 393): 7.1 µM (inactive)
- GI50 (SR): 26.5 µM (inactive)
- GI50 (NCI-H226): 29.9 µM (inactive)
- GI50 (NCI-H460): 11.7 µM (inactive)
- GI50 (RXF 631): 25.1 µM (inactive)
- GI50 (HCC 2998): 15.1 µM (inactive)
- GI50 (SNB-19): 21.3 µM (inactive)
- GI50 (OVCAR-4): 97.1 µM (inactive)
- GI50 (SK-MEL-2): 20.9 µM (inactive)
- GI50 (UO-31): 16.2 µM (inactive)
- GI50 (SK-OV-3): 18.4 µM (inactive)
- GI50 (IGROV-1): 32.1 µM (inactive)
- GI50 (LXFL 529): 32.2 µM (inactive)
- GI50 (ACHN): 17.6 µM (inactive)
- GI50 (SN12C): 19.1 µM (inactive)
- GI50 (MOLT-4): 16.8 µM (inactive)
- GI50 (SW-620): 23.4 µM (inactive)
- GI50 (UACC-62): 16.3 µM (inactive)
- GI50 (CAKI-1): > 100 µM (inactive)
- GI50 (SF-268): 11.3 µM (inactive)
- GI50 (SF-539): 14.1 µM (inactive)
- GI50 (U-251): 7.57 µM (inactive)
- GI50 (OVCAR-3): 28 µM (inactive)
- GI50 (COLO 205): 13.8 µM (inactive)
- GI50 (NCI-H23): 17.9 µM (inactive)
- GI50 (HOP-62): 21.8 µM (inactive)
- GI50 (KM12): 23 µM (inactive)
- GI50 (K562): 14.8 µM (inactive)
- GI50 (SF-295): 11.2 µM (inactive)
- GI50 (UACC-257): 15.1 µM (inactive)
